From patent publication US9856254B2, “Alkoxy substituted imidazoquinolines” (3M INNOVATIVE PROPERTIES COMPANY, priority 2003, dated 2018)
Counter-ions that a name gives are not always drawn.

**Q.** With `CCCn1c(COCC)nc2c(N)nc3cc(OC4CCN(C(C)=O)CC4)ccc3c21` [Example 560, 7-[(1-Acetylpiperidin-4-yl)oxy]-2-(ethoxymethyl)-1-propyl-1H-imidazo[4,5-c]quinolin-4-amine] as the compound, how does the melting point read?
**A.** 178 to 179.5 °C

**Q.** For `CCOCc1nc2c(N)nc3cc(OCCCN4CCCC4=O)ccc3c2n1CCCCNC(=O)NC(C)C` [Example 399, N-(4-{4-Amino-2-(ethoxymethyl)-7-[3-(2-oxopyrrolidin-1-yl)propoxy]-1H-imidazo[4,5-c]quinolin-1-yl}butyl)-N′-isopropylurea], which melting point is on record?
**A.** 98 to 101 °C

**Q.** With `CCCc1nc2c(N)nc3cc(OCCCNS(C)(=O)=O)ccc3c2n1CC(C)C` [Example 11, N-{3-[4-Amino-1-(2-methylpropyl)-2-propyl-1H-imidazo[4,5-c]quinolin-7-yloxy]propyl}methanesulfonamide] as the compound, how does the melting point read?
**A.** 166.5 to 168.5 °C

**Q.** For `Cc1nc2c(N)nc3cc(OCCNC(=O)OC(C)(C)C)ccc3c2n1CC(C)C` [Example 9, tert-Butyl 2-{[4-amino-2-methyl-1-(2-methylpropyl)-1H-imidazo[4,5-c]quinolin-7-yl]oxy}ethylcarbamate], which melting point is on record?
**A.** 226.9 to 228.2 °C

**Q.** For `CCCn1c(COCC)nc2c(N)nc3ccc(OC(=O)N4CCOCC4)cc3c21` [Example 570, 4-Amino-2-(ethoxymethyl)-1-propyl-1H-imidazo[4,5-c]quinolin-8-yl morpholine-4-carboxylate], which melting point is on record?
**A.** 193 to 196 °C

**Q.** With `CCCc1nc2c(N)nc3cc(OCCCNS(=O)(=O)CCc4cccc5ccccc45)ccc3c2n1CC(C)C` [Example 14, N-(3-{[4-Amino-1-(2-methylpropyl)-2-propyl-1H-imidazo[4,5-c]quinolin-7-yl]oxy}propyl)-2-(1-naphthyl)ethanesulfonamide] as the compound, how does the melting point read?
**A.** 164 to 168 °C

**Q.** With `CCCn1c(COC)nc2c(N)nc3ccc(OCCCN4CCN(c5ccccn5)CC4)cc3c21` [Example 657, 2-(Methoxymethyl)-1-propyl-8-[3-(4-pyridin-2-ylpiperazin-1-yl)propoxy]-1H-imidazo[4,5-c]quinolin-4-amine] as the compound, how does the melting point read?
**A.** 196 to 197 °C

**Q.** For `CCOCc1nc2c(N)nc3cc(OC4CCNCC4)ccc3c2n1CC(O)CO` (stereo not shown) (as salt: hydrochloride), which melting point is on record?
**A.** 278 to 280 °C

**Q.** With `CCCc1nc2c(N)nc3cc(OCCCNC(=O)c4cccnc4)ccc3c2n1CC(C)C` [Example 16, N-{3-[4-Amino-1-(2-methylpropyl)-2-propyl-1H-imidazo[4,5-c]quinolin-7-yloxy]propyl}nicotinamide] as the compound, how does the melting point read?
**A.** 172 to 174 °C

**Q.** For `CCCc1nc2c(N)nc3cc(OCCC4CCN(C(=O)OC(C)(C)C)CC4)ccc3c2n1CC(C)C` [Example 22, tert-Butyl 4-(2-{[4-amino-1-(2-methylpropyl)-2-propyl-1H-imidazo[4,5-c]quinolin-7-yl]oxy}ethyl)piperidine-1-carboxylate], which melting point is on record?
**A.** 196.4 to 199.6 °C

**Q.** Which melting point does the source give for `CCCc1nc2c(N)nc3cc(OCCN4CCCC4=O)ccc3c2n1CC(C)C` [Example 18, 1-{2-[4-Amino-1-(2-methylpropyl)-2-propyl-1H-imidazo[4,5-c]quinolin-7-yloxy]ethyl}pyrrolidin-2-one] here?
**A.** 206 to 208 °C

**Q.** For `CCOCc1nc2c(N)nc3cc(OC4CCOC4)ccc3c2n1CCCCN1CCCS1(=O)=O` (stereo not shown) [Example 401, 1-[4-(1,1-Dioxidoisothiazolidin-2-yl)butyl]-2-(ethoxymethyl)-7-(tetrahydrofuran-3-yloxy)-1H-imidazo[4,5-c]quinolin-4-amine], which melting point is on record?
**A.** 195.5 to 197 °C

**Q.** Which melting point does the source give for `CCCCc1nc2c(N)nc3ccc(OCCC4CCN(S(C)(=O)=O)CC4)cc3c2n1C` [Example 41, 2-Butyl-8-{2-[1-(methanesulfonyl)piperidin-4-yl]ethoxy}-1-methyl-1H-imidazo[4,5-c]quinolin-4-amine] here?
**A.** 198 to 199.5 °C

**Q.** With `CCCn1c(CCOC)nc2c(N)nc3cc(OC(=O)NC(C)C)ccc3c21` [Example 366, 4-Amino-2-(2-methoxyethyl)-1-propyl-1H-imidazo[4,5-c]quinolin-7-yl isopropylcarbamate] as the compound, how does the melting point read?
**A.** 144 to 146 °C

**Q.** With `CCOCc1nc2c(N)nc3cc(OCCNC(=O)OC(C)(C)C)ccc3c2n1CC1COC(C)(C)O1` (stereo not shown) [Example 372, tert-Butyl 2-{[4-amino-1-[(2,2-dimethyl-1,3-dioxolan-4-yl)methyl]-2-(ethoxymethyl)-1H-imidazo[4,5-c]quinolin-7-yl]oxy}ethylcarbamate] as the compound, how does the melting point read?
**A.** 82 to 84 °C

**Q.** With `CCCn1c(COCC)nc2c(N)nc3ccc(OC4CCN(C(=O)OC(C)(C)C)CC4)cc3c21` [Example 410, tert-Butyl 4-{[4-amino-2-(ethoxymethyl)-1-propyl-1H-imidazo[4,5-c]quinolin-8-yl]oxy}piperidine-1-carboxylate] as the compound, how does the melting point read?
**A.** 179.5 to 181 °C

**Q.** For `CCOCc1nc2c(N)nc3cc(OCCCCCCNS(C)(=O)=O)ccc3c2n1CC(C)(C)NS(C)(=O)=O` [Example 45, N-(2-{4-Amino-2-ethoxymethyl-7-[6-(methanesulfonylamino)hexyloxy]-1H-imidazo[4,5-c]quinolin-1-yl}-1,1-dimethylethyl)methanesulfonamide], which melting point is on record?
**A.** 176 to 180 °C

**Q.** For `CCOCc1nc2c(N)nc3cc(OC4CCN(C(=O)OC(C)(C)C)CC4)ccc3c2n1CC(C)(C)O` [Example 563, tert-Butyl 4-{[4-amino-2-(ethoxymethyl)-1-(2-hydroxy-2-methylpropyl)-1H-imidazo[4,5-c]quinolin-7-yl]oxy}piperidine-1-carboxylate], which melting point is on record?
**A.** 214 to 215 °C (dec.)

**Q.** For `CCCn1c(CCO)nc2c(N)nc3cc(OCCCNC(=O)C(C)C)ccc3c21` [Example 395, N-(3-{[4-Amino-2-(2-hydroxyethyl)-1-propyl-1H-imidazo[4,5-c]quinolin-7-yl]oxy}propyl)-2-methylpropanamide], which melting point is on record?
**A.** 190.5 to 192 °C

**Q.** With `CCCCc1nc2c(N)nc3ccc(OCCNC(=O)CC)cc3c2n1C` [Example 43, N-[2-(4-Amino-2-butyl-1-methyl-1H-imidazo[4,5-c]quinolin-8-yloxy)ethyl]propanamide] as the compound, how does the melting point read?
**A.** 250 to 255 °C (dec.)

**Q.** For `CCCn1c(COC)nc2c(N)nc3ccc(OCCN4CCCCC4)cc3c21` [Example 559, 2-Methoxymethyl-8-(2-piperidin-1-ylethoxy)-1-propyl-1H-imidazo[4,5-c]quinolin-4-amine], which melting point is on record?
**A.** 160 to 162 °C

**Q.** With `CCCn1c(COC)nc2c(N)nc3ccc(OCCC4CCCN4C)cc3c21` (stereo not shown) [Example 567, 2-(Methoxymethyl)-8-[2-(1-methylpyrrolidin-2-yl)ethoxy]-1-propyl-1H-imidazo[4,5-c]quinolin-4-amine] as the compound, how does the melting point read?
**A.** 155 to 157 °C

**Q.** With `Cc1nc2c(N)nc3ccc(OCC(=O)O)cc3c2n1C` [Example 44, 2-[(4-Amino-1,2-dimethyl-1H-imidazo[4,5-c]quinolin-8-yl)oxy]acetic acid] as the compound, how does the melting point read?
**A.** 298 °C (dec.)

**Q.** For `CCCCc1nc2c(N)nc3ccc(OCCCCC(=O)N4CCOCC4)cc3c2n1C` (as salt: trifluoroacetate) [Example 31, 2-Butyl-1-methyl-8-[(5-morpholin-4-yl-5-oxopentyl)oxy]-1H-imidazo[4,5-c]quinolin-4-amine trifluoroacetate], which melting point is on record?
**A.** 155.5 to 156.2 °C

**Q.** Which melting point does the source give for `CCCn1c(COCC)nc2c(N)nc3ccc(OC4CCN(C(=O)C(C)C)CC4)cc3c21` [Example 414, 2-(Ethoxymethyl)-8-[(1-isobutyrylpiperidin-4-yl)oxy]-1-propyl-1H-imidazo[4,5-c]quinolin-4-amine] here?
**A.** 177 to 179 °C

**Q.** For `CCc1nc2c(N)nc3cc(OCCN4CCOCC4)ccc3c2n1CC1CCOCC1` [Example 568, 2-Ethyl-7-(2-morpholin-4-ylethoxy)-1-(tetrahydro-2H-pyran-4-ylmethyl)-1H-imidazo[4,5-c]quinolin-4-amine], which melting point is on record?
**A.** 230 to 232 °C

**Q.** Which melting point does the source give for `Cc1nc2c(N)nc3cc(OCCC4CCN(C(=O)N5CCOCC5)CC4)ccc3c2n1CC(C)C` [Example 28, 2-Methyl-1-(2-methylpropyl)-7-{2-[1-(morpholin-4-ylcarbonyl)piperidin-4-yl]ethoxy}-1H-imidazo[4,5-c]quinolin-4-amine] here?
**A.** 205 to 208 °C

**Q.** For `CCCn1c(COCC)nc2c(N)nc3cc(OCC(=O)N4CCOCC4)ccc3c21` [Example 648, 2-(Ethoxymethyl)-7-(2-morpholin-4-yl-2-oxoethoxy)-1-propyl-1H-imidazo[4,5-c]quinolin-4-amine], which melting point is on record?
**A.** 213 °C

**Q.** Which melting point does the source give for `CCOCc1nc2c(N)nc3cc(OCCCCCCNS(C)(=O)=O)ccc3c2n1CC(C)(C)NC(=O)NC(C)C` [Example 371, N-(6-{[4-Amino-2-(ethoxymethyl)-1-(2-{[(isopropylamino)carbonyl]amino}-2-methylpropyl)-1H-imidazo[4,5-c]quinolin-7-yl]oxy}hexyl)methanesulfonamide] here?
**A.** 190 to 194 °C

**Q.** For `CCCn1c(CCOC)nc2c(N)nc3cc(OC4CCN(S(C)(=O)=O)CC4)ccc3c21` [Example 390, 2-(2-Methoxyethyl)-7-{[1-(methylsulfonyl)piperidin-4-yl]oxy}-1-propyl-1H-imidazo[4,5-c]quinolin-4-amine], which melting point is on record?
**A.** 224 to 225.5 °C

**Q.** Which melting point does the source give for `CCOCc1nc2c(N)nc3cc(OCCCCCCNC(C)=O)ccc3c2n1CC(C)(C)NC(=O)NC(C)C` [Example 370, N-(6-{[4-Amino-2-(ethoxymethyl)-1-(2-{[(isopropylamino)carbonyl]amino}-2-methylpropyl)-1H-imidazo[4,5-c]quinolin-7-yl]oxy}hexyl)acetamide] here?
**A.** 90 to 110 °C

**Q.** With `CCOCc1nc2c(N)nc3cc(OC4CCN(C(=O)OC(C)(C)C)CC4)ccc3c2n1CC1COC(C)(C)O1` (stereo not shown) [Example 374, tert-Butyl 4-{[4-amino-1-[(2,2-dimethyl-1,3-dioxolan-4-yl)methyl]-2-(ethoxymethyl)-1H-imidazo[4,5-c]quinolin-7-yl]oxy}piperidine-1-carboxylate] as the compound, how does the melting point read?
**A.** 158 to 159 °C

**Q.** Which melting point does the source give for `CCOCc1nc2c(N)nc3cc(OCC(=O)N4CCOCC4)ccc3c2n1CC(C)(C)O` [Example 646, 1-[4-Amino-2-(ethoxymethyl)-7-(2-morpholin-4-yl-2-oxoethoxy)-1H-imidazo[4,5-c]quinolin-1-yl]-2-methylpropan-2-ol] here?
**A.** 209 to 211 °C

**Q.** With `CCCc1nc2c(N)nc3cc(OCCCNC(=O)N4CCOCC4)ccc3c2n1CC(C)C` [Example 20, N-(3-{[4-Amino-2-propyl-1-(2-methylpropyl)-1H-imidazo[4,5-c]quinolin-7-yl]oxy}propyl)morpholine-4-carboxamide] as the compound, how does the melting point read?
**A.** 145 °C
